Source: patent US5494932A, “Sulfonic stilbene derivatives in the treatment of viral disease” (Merrell Dow Pharmaceuticals Inc., priority 1991, dated 1996)
Where two headings read alike, the source gives them in different places.

Columns and labels:
[1] = tested on: HIV-1 strain RF in C8166 cells; assay: Acute HIV-1 (RF) infection of C8166 cells: syncytial and p24 antigen assays; format: cell-based, HIV-1 (human C8166 cells)
Description: When evaluated in the human T cell line JM acutely infected with the GB8 virus, DIDS, H2 DIDS and SITS (Table I) suppressed virus-induced multinucleated giant cell formation (syncytia). […] We also examined the antiviral properties of these compounds in a second host-cell/virus system, i.e., the highly CD4+ C8166 cells infected with the Haitian strain of HIV-1, RF.
The cell lines used were the semi-mature human lymphoblastoid leukemia T cell line JM, the human T-lymphoblastoid C8166 cell line, the human cutaneous T cell lymphoma line H9 and, the human T cell transformed line MT-4. Stocks of HIV-1 strains RF and GB8 (kindly provided by Dr. Graham Farrar, Center for Applied Microbiological Research, Porton Dawn, England) were prepared from chronically infected H9 cells and acutely infected JM cells, respectively. Virus stocks consisted of cell-free growth medium (RPMI 1640 plus 10% fetal calf serum) containing freshly shed virus. Virus titres were determined by a standard plaque reduction assay.
Virus stocks (strains RF or GB8) were diluted into growth medium containing various concentrations of DIDS, H2 DIDS or SITS. The required number of cells were then immediately added and the virus allowed to absorb for 2 hours at 37° C. to give a multiplicity of infection (MOI) of 0.001 infectious units/cell. The virus-infected cells were pelleted, washed three times in phosphate buffered saline (PBS), and resuspended in fresh growth medium containing the appropriate concentrations of stilbene disulfonic acids. Cells were then distributed into 24-well culture plates (Falcon) and assayed as described below for virus infection. Alternatively, cells were first infected with HIV-1 (strains RF or GB8) for 2 hours at 37° C. at the above MOI. After extensive washing, cells were replated into fresh growth medium containing various concentrations of stilbene disulfonic acids. In the above experiments, syncytia were scored between 2 and 4 days postinfection (p.i.) in triplicate using an Olympus CK2 inverted microscope. The culture fluids were recovered between 3 and 5 days p.i., clarified by low speed centrifugation (2,000 rpm) for 5 minutes and the level of HIV-1 p24 core antigen in the supernatants was determined by p24 antigen ELISA (Coulter). The concentrations of stilbene disulfonic acids giving 50% inhibition of HIV-1 growth (IC50) were determined from the dose-response curves by linear regression analysis.

[2] = tested on: HIV-1 strain GB8 in JM cells; assay: Established HIV-1 (GB8) infection of JM cells, post-infection addition: syncytia and p24 antigen; format: cell-based, HIV-1 (human T cell line JM); details: for activity at 100 µg/mL: Human immunodeficiency virus 1, 75 h
Protocol: The stilbene disulfonic acids blocked HIV-1 replication when the compounds were added within 2 hours of virus adsorption, i.e., prior to virus penetration, and the cells were cultured in the presence of the inhibitors. These compounds were next examined for antiviral activity at later stages of the infection process. At a MOI of 0.01 infectious units/cell (GB8 virus), viral glycoproteins appear at the surface of JM cells by 24 hours post-infection (p.i.) and initiate fusion with neighboring CD4^+ cells; the syncytial numbers show a good correlation with the production of cell-free virus (Tyms et al., 1990).
In post-treatent experiments, cells were first infected with HIV-1 strain RF or GB8 for 2 hours at 37° C. at a MOI of 0.01 and allowed to grow for either 24 or 43 hours before replating into fresh growth medium containing 100 μg/ml of DIDS, H2 DIDS or SITS. Syncytia were then scored at 52 and 68 hours p.i. in triplicate, and p24 viral core antigen in culture fluids were assayed at 75 hours p.i. as described above.
Protocol: JM cells were infected with HIV at a multiplicity of infection of 0.00025 syncytial forming units per cell. Virus adsorption was at room temperature for one hour. The cells were then washed three times and distributed in wells of a tissue culture plate at a concentration of 2×10^5 cells/well. Either DIDS, SITS or H2 DIDS (all at 100 μg/ml) were added to wells at 0, 24, 43 and 51 hours post-infection. As virus controls some wells had no drug added. Syncytia were scored at 43, 52 and 68 hours post-infection. The cell-free supernatant fluids of the virus control wells were harvested after 33, 43, 51, 68 and 75 hours post-infection. All other wells were harvested 75 hours post-infection. The supernatant fluid was then assayed for p24 viral core antigen.

[3] = tested on: HSV 2; assay: Plaque reduction assay, HSV 2; format: cell-based; details: for activity at 0.1 µg/mL / activity at 1 µg/mL / activity at 10 µg/mL / activity at 100 µg/mL: read-out: Mean % VC (plaques)
Protocol: Protocol: Plaque reduction assay. Treatment after adsorption during incubation.

[4] = tested on: HIV-1 strain GB8 in JM cells; assay: Established HIV-1 (GB8) infection of JM cells, post-infection addition: syncytia and p24 antigen; format: cell-based, HIV-1 (human T cell line JM); details: 100 μg/ml
[5] = Human immunodeficiency virus 1, RF strain in C8166 cells, read-out: P24 Antigen % Virus Control (values in parenthesis)
[6] = 100 μg/ml, time of addition 0 h p.i.
[7] = 100 μg/ml, time of addition 24h
[8] = 100 μg/ml, time of addition 24 hours
[9] = 100 μg/ml, time of addition 24 h p.i.
[10] = 100 μg/ml, time of addition 43h
[11] = 100 μg/ml, time of addition 43 hours
[12] = 100 μg/ml, time of addition 43 h p.i.
[13] = 100 μg/ml, time of addition 51h
[14] = 100 μg/ml, time of addition 51 hours

O=S(=O)(O)c1cc(N=C=S)ccc1C=Cc1ccc(N=C=S)cc1S(=O)(=O)O [DIDS, 4,4'-diisothiocyanatostilbene-2,2'-disulfonic acid] was tested, and the HIV-1 infection ([1]; C8166 cells infected with RF) was “blocked HIV-1 infection”, the activity at 25 µg/mL ([1]; Human immunodeficiency virus 1, 25 µg/mL, RF strain in C8166 cells, read-out: P24 Antigen % Virus Control (values in parenthesis)) was 100% and the activity at 50 µg/mL [1, 5] was 83%. For the same compound, the activity at 100 µg/mL [1, 5] was 33%, the activity at 200 µg/mL [1, 5] was 4.8% and the “syncytia by 68 hours p.i.” value ([2]; 100 μg/ml, added 43 hours p.i.) was “completely absent”. For the same compound, the “fusion relative to virus control” value ([2]; 100 μg/ml, addition 24 hours p.i., scored at 52 and 68 hours p.i.) was “completely suppressed fusion”, the “Mean Syncytia 68 hrs” value ([2]; 100 μg/ml, time of addition 0h) was 0 and the “P24 Antigen (75 hours post-infection)” value ([2]; 100 μg/ml, time of addition 0 hours) was “Neg”. For the same compound, the “P24 Antigen 75 h” value [2, 6] was “Neg”, the “Syncytia at 52h” value [2, 6] was 0 and the “Syncytia at 68h” value [2, 6] was 0. The “Mean Syncytia 68 hrs” value [2, 7] was 0, the “P24 Antigen (75 hours post-infection)” value [2, 8] was “Neg” and the “P24 Antigen 75 h” value [2, 9] was “Neg”. For the same compound, the “Syncytia at 52h” value [2, 9] was 0, the “Syncytia at 68h” value [2, 9] was 0 and the “Mean Syncytia 51 hrs” value [2, 10] was 19. The “Mean Syncytia 68 hrs” value [2, 10] was 0, the “P24 Antigen (75 hours post-infection)” value [2, 11] was 2793 pg/mL and the “P24 Antigen 75 h” value [2, 12] was 2.8 ng/mL. The “Syncytia at 52h” value [2, 12] was 19, the “Syncytia at 68h” value [2, 12] was 0 and the “Mean Syncytia 68 hrs” value [2, 13] was 25. For the same compound, the “P24 Antigen (75 hours post-infection)” value [2, 14] was 49050 pg/mL, the activity at 100 µg/mL ([2]; read-out: P24 Antigen (75 hours post-infection), %, 100 μg/ml, time of addition 0 hours) was > 1% and the activity at 100 µg/mL ([2]; read-out: P24 Antigen (75 hours post-infection), %, 100 μg/ml, time of addition 24 hours) was < 1%. The activity at 100 µg/mL ([2]; read-out: P24 Antigen (75 hours post-infection), %, 100 μg/ml, time of addition 43 hours) was 2.4%, the activity at 100 µg/mL ([2]; read-out: P24 Antigen (75 hours post-infection), %, 100 μg/ml, time of addition 51 hours) was 42% and the “relative order of antiviral potency” value ([2]; established HIV-1 infections) was “DIDS>H2 DIDS>>SITS”. It also gave a Plaque counts ([3]; 0.1 μg/ml, first count) of 37, an activity at 0.1 µg/mL ([3]; 0.1 μg/ml) of 68% and a Plaque counts ([3]; 0.1 μg/ml, second count) of 40. The Plaque counts ([3]; 1 μg/ml, first count) was 31, the activity at 1 µg/mL ([3]; 1 μg/ml) was 61% and the Plaque counts ([3]; 1 μg/ml, second count) was 33. The Plaque counts ([3]; 1 μg/ml, third count) was 39, the Plaque counts ([3]; 10 μg/ml, first count) was 25 and the activity at 10 µg/mL ([3]; 10 μg/ml) was 44%. For the same compound, the Plaque counts ([3]; 10 μg/ml, second count) was 25, the Plaque counts ([3]; 10 μg/ml, third count) was 25 and the Plaque counts ([3]; 100 μg/ml, first count) was 0. It also gave an activity at 100 µg/mL ([3]; 100 μg/ml) of 0%, a Plaque counts ([3]; 100 μg/ml, second count) of 0 and a Plaque counts ([3]; 100 μg/ml, third count) of 0. For the same compound, the “Mean Syncytia 51 hrs” value ([4]; time of addition 0h) was 0 and the “Mean Syncytia 51 hrs” value ([4]; time of addition 24h) was 0.

O=S(=O)(O)c1cc(N=C=S)ccc1CCc1ccc(N=C=S)cc1S(=O)(=O)O [H2 DIDS, 4,4'-diisothiocyanatodihydrostilbene-2,2'-disulfonic acid] was tested, and the activity at 50 µg/mL [1, 5] was > 100%, the activity at 100 µg/mL [1, 5] was 59% and the activity at 200 µg/mL [1, 5] was 2.5%. The “Mean Syncytia 68 hrs” value ([2]; 100 μg/ml, time of addition 0h) was 0, the “P24 Antigen 75 h” value [2, 6] was “Neg” and the “Syncytia at 52h” value [2, 6] was 0. For the same compound, the “Syncytia at 68h” value [2, 6] was 0, the “Mean Syncytia 68 hrs” value [2, 7] was 0 and the “P24 Antigen (75 hours post-infection)” value [2, 8] was 2363 pg/mL. The “P24 Antigen 75 h” value [2, 9] was 2.4 ng/mL, the “Syncytia at 52h” value [2, 9] was 0 and the “Syncytia at 68h” value [2, 9] was 0. For the same compound, the “Mean Syncytia 51 hrs” value [2, 10] was 19, the “Mean Syncytia 68 hrs” value [2, 10] was 3 and the “P24 Antigen (75 hours post-infection)” value [2, 11] was 16412 pg/mL. For the same compound, the “P24 Antigen 75 h” value [2, 12] was 16.4 ng/mL, the “Syncytia at 52h” value [2, 12] was 19 and the “Syncytia at 68h” value [2, 12] was 3. For the same compound, the “Mean Syncytia 68 hrs” value [2, 13] was 15, the “P24 Antigen (75 hours post-infection)” value [2, 14] was 42020 pg/mL and the activity at 100 µg/mL ([2]; 100 μg/ml, time of addition 0 hours, read-out: P24 Antigen (75 hours post-infection), %) was < 1%. For the same compound, the activity at 100 µg/mL ([2]; 100 μg/ml, time of addition 0 h p.i., read-out: P24 Antigen 75 h, % (drug-free medium 100%)) was 0%, the activity at 100 µg/mL ([2]; 100 μg/ml, time of addition 24 hours, read-out: P24 Antigen (75 hours post-infection), %) was 2% and the activity at 100 µg/mL ([2]; 100 μg/ml, time of addition 24 h p.i., read-out: P24 Antigen 75 h, % (drug-free medium 100%)) was 2%. For the same compound, the activity at 100 µg/mL ([2]; 100 μg/ml, time of addition 43 hours, read-out: P24 Antigen (75 hours post-infection), %) was 14%, the activity at 100 µg/mL ([2]; 100 μg/ml, time of addition 43 h p.i., read-out: P24 Antigen 75 h, % (drug-free medium 100%)) was 14% and the activity at 100 µg/mL ([2]; 100 μg/ml, time of addition 51 hours, read-out: P24 Antigen (75 hours post-infection), %) was 36%. It also gave a Plaque counts ([3]; 0.1 μg/ml, first count) of 35, a Plaque counts ([3]; 0.1 μg/ml, second count) of 35 and a Plaque counts ([3]; 1 μg/ml, first count) of 23. For the same compound, the Plaque counts ([3]; 1 μg/ml, second count) was 31, the Plaque counts ([3]; 1 μg/ml, third count) was 24 and the Plaque counts ([3]; 10 μg/ml, first count) was 26. It also gave a Plaque counts ([3]; 10 μg/ml, second count) of 19, a Plaque counts ([3]; 10 μg/ml, third count) of 21 and a Plaque counts ([3]; 100 μg/ml, first count) of 0. It also gave a Plaque counts ([3]; 100 μg/ml, second count) of 0, a Plaque counts ([3]; 100 μg/ml, third count) of 0 and an activity at 0.1 µg/mL [3] of 63%. For the same compound, the activity at 1 µg/mL [3] was 46%, the activity at 10 µg/mL [3] was 43% and the activity at 100 µg/mL [3] was 0%. The “Mean Syncytia 51 hrs” value ([4]; time of addition 0h) was 0 and the “Mean Syncytia 51 hrs” value ([4]; time of addition 24h) was 0.
